Assay results reported in patent publication US20250145585A1, “HETEROCYCLIC INHIBITORS OF IGF-1R FOR TREATMENT OF DISEASE” (HORIZON THERAPEUTICS IRELAND DAC, priority 2023, published 2025).

Legend:
IGF-1R [1] = target: T1, IGF-1R (Homo sapiens, UniProt P08069); experiment: Example B-1: IGF-1R Assay (PC3 cells stimulated with IGF1, AlphaLISA on cell lysates); assay type: cell-based; conditions: compound two hours, IGF1 200 ng/mL for 30 min, read-out: IC50, Biological Activity against IGF-1R (Table B1)
T1 construct: expressed in transfected cells
T1 sequence (P08069 31-1367): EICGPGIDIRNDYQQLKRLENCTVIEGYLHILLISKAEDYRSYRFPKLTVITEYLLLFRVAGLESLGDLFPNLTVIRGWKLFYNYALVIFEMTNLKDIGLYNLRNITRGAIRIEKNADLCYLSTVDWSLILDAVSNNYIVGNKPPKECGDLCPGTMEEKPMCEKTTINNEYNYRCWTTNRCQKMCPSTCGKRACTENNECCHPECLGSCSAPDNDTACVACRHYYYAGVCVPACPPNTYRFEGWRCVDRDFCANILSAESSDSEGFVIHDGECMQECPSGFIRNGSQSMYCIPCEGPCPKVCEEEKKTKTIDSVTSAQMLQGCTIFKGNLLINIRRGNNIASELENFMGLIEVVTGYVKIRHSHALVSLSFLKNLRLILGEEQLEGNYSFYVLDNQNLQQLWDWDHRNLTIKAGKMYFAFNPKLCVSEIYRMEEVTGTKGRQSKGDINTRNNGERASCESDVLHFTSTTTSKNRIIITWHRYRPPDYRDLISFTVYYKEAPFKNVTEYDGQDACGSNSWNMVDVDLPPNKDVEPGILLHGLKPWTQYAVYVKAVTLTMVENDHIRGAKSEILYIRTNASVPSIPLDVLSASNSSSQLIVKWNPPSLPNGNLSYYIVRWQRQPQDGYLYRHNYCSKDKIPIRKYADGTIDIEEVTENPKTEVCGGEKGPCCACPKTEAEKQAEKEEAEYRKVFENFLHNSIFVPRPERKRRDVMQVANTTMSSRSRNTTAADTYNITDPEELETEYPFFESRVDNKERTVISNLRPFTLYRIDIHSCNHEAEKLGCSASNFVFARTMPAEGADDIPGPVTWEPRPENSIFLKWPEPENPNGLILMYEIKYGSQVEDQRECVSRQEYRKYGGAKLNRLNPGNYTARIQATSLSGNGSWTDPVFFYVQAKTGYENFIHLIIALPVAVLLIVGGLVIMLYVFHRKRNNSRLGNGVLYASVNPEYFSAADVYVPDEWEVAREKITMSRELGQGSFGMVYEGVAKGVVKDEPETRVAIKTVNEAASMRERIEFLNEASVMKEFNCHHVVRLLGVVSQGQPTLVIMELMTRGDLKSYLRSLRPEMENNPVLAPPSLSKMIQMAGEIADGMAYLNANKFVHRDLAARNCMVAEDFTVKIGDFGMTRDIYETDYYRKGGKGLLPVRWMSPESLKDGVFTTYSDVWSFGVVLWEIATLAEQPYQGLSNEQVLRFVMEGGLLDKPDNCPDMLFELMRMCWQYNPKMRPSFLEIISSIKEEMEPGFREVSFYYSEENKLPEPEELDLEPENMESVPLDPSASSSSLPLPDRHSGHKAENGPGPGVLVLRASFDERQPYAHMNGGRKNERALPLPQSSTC
Outline: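 PC3 cells serum-starved 2 h, treated 2 h with 3-fold serially diluted compound, then stimulated 30 min with IGF1 (200 ng/mL final). Lysates analysed by AlphaLISA; % inhibition calculated relative to vehicle and EC80 controls, IC50 derived.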

IGF-1R [2] = target: T1, IGF-1R; experiment: Example B-2: IGF-1R Assay (PathHunter cell lines, EC80 agonist challenge, chemiluminescent detection); assay type: cell-based; conditions: PathHunter cells, compound 60 minutes at 37° C., EC80 agonist 3 hours; read-out: IC50, Biological Activity against IGF-1R (Table B2)
Outline: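 PathHunter cells were pre-incubated with compound for 60 min at 37° C (1% vehicle), then challenged with EC80 agonist for 3 h at room temperature. Chemiluminescent detection after 1 h gave % inhibition relative to EC80 and vehicle controls, from which IC50 was derived.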

IC50 (IGF-1R [1]) | IC50 (IGF-1R [2]) | SMILES
500 to 2000 nM | 500 to 2000 nM | CC(C)Nc1cc(CN2C(=O)N(c3ccc(C4(C#N)CC(F)(F)C4)cc3)C(=O)C2(C)C)ccn1 [Compound 123, 3,3-difluoro-1-(4-(3-((2-(isopropylamino)pyridin-4-yl)methyl)-4,4-dimethyl-2,5-dioxoimidazolidin-1-yl)phenyl)cyclobutane-1-carbonitrile]
≤ 500 nM | ≤ 500 nM | CC(C)Nc1cc(CN2C(=O)N(c3ccc4c(c3)N(C)CC43CCC3)C(=O)C2(C)C)ccn1 [Compound 191, 1-((2-(isopropylamino)pyridin-4-yl)methyl)-5,5-dimethyl-3-(1′-methylspiro[cyclobutane-1,3′-indolin]-6′-yl)imidazolidine-2,4-dione]
2000 to 10000 nM | 2000 to 10000 nM | CC(C)Nc1cc(CN2C(=O)N(c3ccc4c(C5CC5)n[nH]c4c3)C(=O)C2(C)C)ccn1 [Compound 258, 3-(3-cyclopropyl-1H-indazol-6-yl)-1-((2-(isopropylamino)pyridin-4-yl)methyl)-5,5-dimethylimidazolidine-2,4-dione]
≤ 500 nM | ≤ 500 nM | CC(C)Nc1cc(CN2C(=O)N(c3ccc4c(c3)OCC4(C)C)C(=O)C2(C)C)ccn1 [Compound 189, 3-(3,3-dimethyl-2,3-dihydrobenzofuran-6-yl)-1-((2-(isopropylamino)pyridin-4-yl)methyl)-5,5-dimethylimidazolidine-2,4-dione]
≤ 500 nM | ≤ 500 nM | CC(C)Nc1cc(CN2C(=O)N(c3ccc(C4(C)CC4)cc3)C(=O)C2(C)C)ccn1 [Compound 98, 1-((2-(isopropylamino)pyridin-4-yl)methyl)-5,5-dimethyl-3-(4-(1-methylcyclopropyl)phenyl)imidazolidine-2,4-dione]
≤ 500 nM | ≤ 500 nM | CC(C)Nc1cc(CN2C(=O)N(c3ccc(C4(C)CC4(F)F)cc3)C(=O)C2(C)C)ccn1 (stereo not shown) [Compound 124, 3-(4-(2,2-difluoro-1-methylcyclopropyl)phenyl)-1-((2-(isopropylamino)pyridin-4-yl)methyl)-5,5-dimethylimidazolidine-2,4-dione]
500 to 2000 nM | 500 to 2000 nM | CC(C)Nc1cc(CN2C(=O)N(c3ccc(C4(C#N)CCCCC4)cc3)C(=O)C2(C)C)ccn1 [Compound 126, 1-(4-(3-((2-(isopropylamino)pyridin-4-yl)methyl)-4,4-dimethyl-2,5-dioxoimidazolidin-1-yl)phenyl)cyclohexane-1-carbonitrile]
≤ 500 nM | ≤ 500 nM | CC(C)Nc1cc(CN2C(=O)N(c3ccc(C4CC45CC5)cc3)C(=O)C2(C)C)ccn1 (stereo not shown) [Compound 97, 1-((2-(isopropylamino)pyridin-4-yl)methyl)-5,5-dimethyl-3-(4-(spiro[2.2]pentan-1-yl)phenyl)imidazolidine-2,4-dione]

Second part, the compound before the results:

SMILES | IC50 (IGF-1R [1]) | IC50 (IGF-1R [2])
CC1(C)C(=O)Nc2nccc(CN3C(=O)N(c4ccc(SC(F)(F)F)cc4)C(=O)C3(C)C)c21 [Compound 19, 1-((3,3-dimethyl-2-oxo-2,3-dihydro-1H-pyrrolo[2,3-b]pyridin-4-yl)methyl)-5,5-dimethyl-3-(4-((trifluoromethyl)thio)phenyl)imidazolidine-2,4-dione] | ≤ 500 nM | ≤ 500 nM
C[C@@H]1COc2c(CN3C(=O)N(c4ccc(C5(C(F)(F)F)CC5)cc4)C(=O)C3(C)C)ccnc2N1 [Compound 25, (R)-5,5-dimethyl-1-((3-methyl-3,4-dihydro-2H-pyrido[3,2-b][1,4]oxazin-8-yl)methyl)-3-(4-(1-(trifluoromethyl)cyclopropyl)phenyl) imidazolidine-2,4-dione] | ≤ 500 nM | ≤ 500 nM
CC1(C)C(=O)N(c2ccc(C3(C(F)(F)F)CCC3)cc2)C(=O)N1Cc1ccnc(NC2CCOCC2)c1 [Compound 130, 5,5-dimethyl-1-((2-((tetrahydro-2H-pyran-4-yl)amino)pyridin-4-yl)methyl)-3-(4-(1-(trifluoromethyl)cyclobutyl)phenyl) imidazolidine-2,4-dione] | ≤ 500 nM | ≤ 500 nM
CC(C)Nc1cc(CN2C(=O)N(c3ccc4c(C(F)(F)F)nn(C)c4c3)C(=O)C2(C)C)ccn1 [Compound 256, 1-((2-(isopropylamino)pyridin-4-yl)methyl)-5,5-dimethyl-3-(1-methyl-3-(trifluoromethyl)-1H-indazol-6-yl)imidazolidine-2,4-dione] | 500 to 2000 nM | 2000 to 10000 nM
CC(C)Nc1cc(CN2C(=O)N(c3ccc(SC(F)(F)F)cc3)C(=O)C2(C)CO)ccn1 (stereo not shown) [Compound 299, 5-(hydroxymethyl)-1-((2-(isopropylamino)pyridin-4-yl)methyl)-5-methyl-3-(4-((trifluoromethyl)thio)phenyl)imidazolidine-2,4-dione] | 2000 to 10000 nM | 2000 to 10000 nM
CC1(C)C(=O)N(c2ccc(SC(F)(F)F)cc2)C(=O)N1Cc1ccnc(NC(=O)Nc2cccc(F)c2)c1 [Compound 373, 1-(4-((5,5-dimethyl-2,4-dioxo-3-(4-((trifluoromethyl)thio)phenyl)imidazolidin-1-yl)methyl)pyridin-2-yl)-3-(3-fluorophenyl)urea] | ≤ 500 nM | ≤ 500 nM
COc1c(CN2C(=O)N(c3ccc(S(=O)(=O)C(F)(F)F)cc3)C(=O)C2(C)C)ccnc1N [Compound 394, 1-((2-amino-3-methoxypyridin-4-yl)methyl)-5,5-dimethyl-3-(4-((trifluoromethyl)sulfonyl)phenyl) imidazolidine-2,4-dione] | ≤ 500 nM | ≤ 500 nM
CC1(C)C(=O)N(c2ccc(C3(C(F)(F)F)CC3)cc2)C(=O)N1Cc1ccnc(NC2CC3(COC3)C2)c1 [Compound 120, 1-((2-((2-oxaspiro[3.3]heptan-6-yl)amino)pyridin-4-yl)methyl)-5,5-dimethyl-3-(4-(1-(trifluoromethyl)cyclopropyl)phenyl) imidazolidine-2,4-dione] | ≤ 500 nM | ≤ 500 nM
COC[C@@H](C)Nc1cc(CN2C(=O)N(c3ccc(S(=O)(=O)C(F)(F)F)cc3)C(=O)C2(C)C)ccn1 [Compound 318, (R)-1-((2-((1-methoxypropan-2-yl)amino)pyridin-4-yl)methyl)-5,5-dimethyl-3-(4-((trifluoromethyl)sulfonyl)phenyl) imidazolidine-2,4-dione] | ≤ 500 nM | ≤ 500 nM
Cc1c(CN2C(=O)N(c3ccc(C4(C(F)(F)F)CC4)cc3)C(=O)C2(C)C)ccnc1NC(C)C [Compound 122, 1-((2-(isopropylamino)-3-methylpyridin-4-yl)methyl)-5,5-dimethyl-3-(4-(1-(trifluoromethyl)cyclopropyl)phenyl)imidazolidine-2,4-dione] | > 10000 nM | ≤ 500 nM
CC1(C)C(=O)N(c2ccc(S(=O)(=O)C(F)(F)F)cc2)C(=O)N1Cc1ccnc(NC2CCOCC2)c1 [Compound 316, 5,5-dimethyl-1-((2-((tetrahydro-2H-pyran-4-yl)amino)pyridin-4-yl)methyl)-3-(4-((trifluoromethyl)sulfonyl)phenyl) imidazolidine-2,4-dione] | ≤ 500 nM | ≤ 500 nM
CC1(C)C(=O)N(c2ccc(C3(C(F)(F)F)CC3)cc2)C(=O)N1Cc1ccnc(NCCS(C)(=O)=O)c1 [Compound 137, 5,5-dimethyl-1-((2-((2-(methylsulfonyl)ethyl)amino)pyridin-4-yl)methyl)-3-(4-(1-(trifluoromethyl)cyclopropyl)phenyl) imidazolidine-2,4-dione] | ≤ 500 nM | ≤ 500 nM
CC1COCCC1Nc1cc(CN2C(=O)N(c3ccc(C4(C(F)(F)F)CC4)cc3)C(=O)C2(C)C)ccn1 (stereo not shown) [Compound 128, 5,5-dimethyl-1-((2-((3-methyltetrahydro-2H-pyran-4-yl)amino)pyridin-4-yl)methyl)-3-(4-(1-(trifluoromethyl)cyclopropyl)phenyl) imidazolidine-2,4-dione] | ≤ 500 nM | ≤ 500 nM
CC1(C)C(=O)N(c2ccc(SC(F)(F)F)cc2)C(=O)N1Cc1ccnc(N)c1C#N [Compound 391, 2-amino-4-((5,5-dimethyl-2,4-dioxo-3-(4-((trifluoromethyl)thio)phenyl)imidazolidin-1-yl)methyl)nicotinonitrile] | ≤ 500 nM | ≤ 500 nM
CC(C)Nc1cc(CN2C(=O)N(c3ccc(SC(F)(F)F)nc3)C(=O)C2(C)C)ccn1 [Compound 392, 1-((2-(isopropylamino)pyridin-4-yl)methyl)-5,5-dimethyl-3-(6-((trifluoromethyl)thio)pyridin-3-yl)imidazolidine-2,4-dione] | 500 to 2000 nM | 500 to 2000 nM
CC1(C)C(=O)N(c2ccc(SC(F)(F)F)cc2)C(=O)N1Cc1ccnc(N)c1Br [Compound 388, 1-((2-amino-3-bromopyridin-4-yl)methyl)-5,5-dimethyl-3-(4-((trifluoromethyl)thio)phenyl)imidazolidine-2,4-dione] | ≤ 500 nM | ≤ 500 nM
CC1(C)C(=O)N(c2ccc(SC(F)(F)F)cc2)C(=O)N1Cc1ccnc2c1CC(=O)N2 [Compound 12, 5,5-dimethyl-1-((2-oxo-2,3-dihydro-1H-pyrrolo[2,3-b]pyridin-4-yl)methyl)-3-(4-((trifluoromethyl)thio)phenyl)imidazolidine-2,4-dione] | ≤ 500 nM | ≤ 500 nM
C[C@@H](CC#N)Nc1cc(CN2C(=O)N(c3ccc(C4(C(F)(F)F)CC4)cc3)C(=O)C2(C)C)ccn1 [Compound 139, (S)-3-((4-((5,5-dimethyl-2,4-dioxo-3-(4-(1-(trifluoromethyl)cyclopropyl)phenyl)imidazolidin-1-yl)methyl)pyridin-2-yl)amino)butanenitrile] | ≤ 500 nM | ≤ 500 nM
